Test results from PubChem BioAssay AID1918938 (Molecular Pharmacology Branch, DTP, NCI, 2023).

System: 556581-035-R-J1-PDC complex spheroid viability
Assay: Anticancer human tumor 556581-035-R-J1-PDC patient-derived ovarian carcinoma cell line growth inhibition
Conditions: for IC50: curve of first compound; for viability, T/C: stronger effect = lower value
Method in brief: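 Multicellular complex spheroids of tumor cells with human endothelial cells (HUVEC) and mesenchymal stem cells; the LSD1 inhibitor iadademstat was combined with standard-of-care or investigational agents. Top concentration at or near clinical Cmax, half-log dilutions; final DMSO ≤0.25%.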

[1] = second compound 0.1 µM, first compound 0.000316 µM
[2] = second compound 0.1 µM, first compound 0.001 µM
[3] = second compound 0.1 µM, first compound 0.00316 µM
[4] = second compound 0.1 µM, first compound 0.01 µM
[5] = second compound 0.1 µM, first compound 0.0316 µM
[6] = second compound 0.1 µM, first compound 0.1 µM
[7] = second compound 0.316 µM, first compound 0.000316 µM
[8] = second compound 0.316 µM, first compound 0.001 µM
[9] = second compound 0.316 µM, first compound 0.00316 µM
[10] = second compound 0.316 µM, first compound 0.01 µM
[11] = second compound 0.316 µM, first compound 0.0316 µM
[12] = second compound 0.316 µM, first compound 0.1 µM
[13] = second compound 1 µM, first compound 0.000316 µM
[14] = second compound 1 µM, first compound 0.001 µM
[15] = second compound 1 µM, first compound 0.00316 µM
[16] = second compound 1 µM, first compound 0.01 µM
[17] = second compound 1 µM, first compound 0.0316 µM
[18] = second compound 1 µM, first compound 0.1 µM
[19] = second compound 3.16 µM, first compound 0.000316 µM
[20] = second compound 3.16 µM, first compound 0.001 µM
[21] = second compound 3.16 µM, first compound 0.00316 µM
[22] = second compound 3.16 µM, first compound 0.01 µM
[23] = second compound 3.16 µM, first compound 0.0316 µM
[24] = second compound 3.16 µM, first compound 0.1 µM
[25] = second compound 10 µM, first compound 0.000316 µM
[26] = second compound 10 µM, first compound 0.001 µM
[27] = second compound 10 µM, first compound 0.00316 µM
[28] = second compound 10 µM, first compound 0.01 µM
[29] = second compound 10 µM, first compound 0.0316 µM
[30] = second compound 10 µM, first compound 0.1 µM
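Further: spheroids exposed to agents for seven days.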
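Wherever viability, T/C is given: 100% = DMSO vehicle control wells.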

CC(C)CC(NC(=O)C(Cc1ccccc1)NC(=O)c1cnccn1)B(O)O (stereo not given) + NC1CCC(NC2CC2c2ccccc2)CC1 was tested, and the IC50 (second compound 0.1 µM) was under 0.316 nM, the IC50 (second compound 0.316 µM) was under 0.316 nM and the IC50 (second compound 1 µM) was under 0.316 nM. The IC50 (second compound 3.16 µM) was under 0.316 nM, the IC50 (second compound 10 µM) was under 0.316 nM and the viability, T/C [1] was 7.87%. It also gave a viability, T/C [2] of 0.11%, a viability, T/C [3] of 0.13% and a viability, T/C [4] of 0.13%. The viability, T/C [5] was 0.08%, the viability, T/C [6] was 0.24% and the viability, T/C [7] was 7.18%. It also gave a viability, T/C [8] of 0.45%, a viability, T/C [9] of 0.63% and a viability, T/C [10] of 0.39%. For the same compound, the viability, T/C [11] was 0.44%, the viability, T/C [12] was 1.89% and the viability, T/C [13] was 11.7%. The viability, T/C [14] was 0.44%, the viability, T/C [15] was 0.91% and the viability, T/C [16] was 0.17%. For the same compound, the viability, T/C [17] was 0.08%, the viability, T/C [18] was 0.43% and the viability, T/C [19] was 7.91%. For the same compound, the viability, T/C [20] was 0.49%, the viability, T/C [21] was 0.13% and the viability, T/C [22] was 0.07%. The viability, T/C [23] was 0.75%, the viability, T/C [24] was 0.19% and the viability, T/C [25] was 5.64%. The viability, T/C [26] was 0.22%, the viability, T/C [27] was 0.25% and the viability, T/C [28] was 0.49%. The viability, T/C [29] was 0.46% and the viability, T/C [30] was 0.24%.
CC(C)CC(NC(=O)CNC(=O)c1cc(Cl)ccc1Cl)B1OC(=O)CC(CC(=O)O)(C(=O)O)O1 (stereo not given) + NC1CCC(NC2CC2c2ccccc2)CC1 showed an IC50 (second compound 0.1 µM) of 4.01 nM, an IC50 (second compound 0.316 µM) of 4.35 nM and an IC50 (second compound 1 µM) of 4.48 nM. For the same compound, the IC50 (second compound 3.16 µM) was 4.6 nM, the IC50 (second compound 10 µM) was 3.25 nM and the viability, T/C [1] was 90.7%. The viability, T/C [2] was 99.5%, the viability, T/C [3] was 62.3% and the viability, T/C [4] was 3.38%. The viability, T/C [5] was 0.24%, the viability, T/C [6] was 0.3% and the viability, T/C [7] was 95.5%. The viability, T/C [8] was 93.4%, the viability, T/C [9] was 67.6% and the viability, T/C [10] was 4.37%. For the same compound, the viability, T/C [11] was 0.84%, the viability, T/C [12] was 0.84% and the viability, T/C [13] was 86.2%. For the same compound, the viability, T/C [14] was 88%, the viability, T/C [15] was 69.7% and the viability, T/C [16] was 4.47%. It also gave a viability, T/C [17] of 0.33%, a viability, T/C [18] of 0.17% and a viability, T/C [19] of 91.3%. For the same compound, the viability, T/C [20] was 86%, the viability, T/C [21] was 72.4% and the viability, T/C [22] was 3.59%. The viability, T/C [23] was 0.33%, the viability, T/C [24] was 0.6% and the viability, T/C [25] was 72.3%. It also gave a viability, T/C [26] of 90.1%, a viability, T/C [27] of 51.2% and a viability, T/C [28] of 2.53%. For the same compound, the viability, T/C [29] was 0.48% and the viability, T/C [30] was 0.7%.
With Nc1ccccc1NC(=O)c1ccc(CNC(=O)OCc2cccnc2)cc1 + NC1CCC(NC2CC2c2ccccc2)CC1 the IC50 (second compound 0.1 µM) was 124 nM, the IC50 (second compound 0.316 µM) was 103 nM and the IC50 (second compound 1 µM) was 111 nM. It also gave an IC50 (second compound 3.16 µM) of 69.9 nM, an IC50 (second compound 10 µM) of 32.2 nM and a viability, T/C (second compound 0.1 µM, first compound 0.00949 µM) of 82.9%. For the same compound, the viability, T/C (second compound 0.1 µM, first compound 0.03 µM) was 74.9%, the viability, T/C (second compound 0.1 µM, first compound 0.0949 µM) was 56.4% and the viability, T/C (second compound 0.1 µM, first compound 0.3 µM) was 28.5%. The viability, T/C (second compound 0.1 µM, first compound 0.949 µM) was 17.6%, the viability, T/C (second compound 0.1 µM, first compound 3 µM) was 1.21% and the viability, T/C (second compound 0.316 µM, first compound 0.00949 µM) was 77.4%. The viability, T/C (second compound 0.316 µM, first compound 0.03 µM) was 66.9%, the viability, T/C (second compound 0.316 µM, first compound 0.0949 µM) was 53.4% and the viability, T/C (second compound 0.316 µM, first compound 0.3 µM) was 28.7%. It also gave a viability, T/C (second compound 0.316 µM, first compound 0.949 µM) of 15.9%, a viability, T/C (second compound 0.316 µM, first compound 3 µM) of 1.67% and a viability, T/C (second compound 1 µM, first compound 0.00949 µM) of 69%. The viability, T/C (second compound 1 µM, first compound 0.03 µM) was 71.6%, the viability, T/C (second compound 1 µM, first compound 0.0949 µM) was 49.6% and the viability, T/C (second compound 1 µM, first compound 0.3 µM) was 32.1%. It also gave a viability, T/C (second compound 1 µM, first compound 0.949 µM) of 17.1%, a viability, T/C (second compound 1 µM, first compound 3 µM) of 0.88% and a viability, T/C (second compound 3.16 µM, first compound 0.00949 µM) of 79.5%. The viability, T/C (second compound 3.16 µM, first compound 0.03 µM) was 61.3%, the viability, T/C (second compound 3.16 µM, first compound 0.0949 µM) was 47.6% and the viability, T/C (second compound 3.16 µM, first compound 0.3 µM) was 26.4%. The viability, T/C (second compound 3.16 µM, first compound 0.949 µM) was 18.2%, the viability, T/C (second compound 3.16 µM, first compound 3 µM) was 1.11% and the viability, T/C (second compound 10 µM, first compound 0.00949 µM) was 74%. The viability, T/C (second compound 10 µM, first compound 0.03 µM) was 49%, the viability, T/C (second compound 10 µM, first compound 0.0949 µM) was 35.8% and the viability, T/C (second compound 10 µM, first compound 0.3 µM) was 17%. For the same compound, the viability, T/C (second compound 10 µM, first compound 0.949 µM) was 9.24% and the viability, T/C (second compound 10 µM, first compound 3 µM) was 0.63%.
O=C(c1cc(Cc2n[nH]c(=O)c3ccccc23)ccc1F)N1CCN(C(=O)C2CC2)CC1 + NC1CCC(NC2CC2c2ccccc2)CC1 showed an IC50 (second compound 0.1 µM) of over 10000 nM, an IC50 (second compound 0.316 µM) of over 10000 nM and an IC50 (second compound 1 µM) of over 10000 nM. It also gave an IC50 (second compound 3.16 µM) of over 10000 nM, an IC50 (second compound 10 µM) of over 10000 nM and a viability, T/C [5] of 85.8%. For the same compound, the viability, T/C [6] was 93.2%, the viability, T/C (second compound 0.1 µM, first compound 0.316 µM) was 91.7% and the viability, T/C (second compound 0.1 µM, first compound 1 µM) was 85.3%. It also gave a viability, T/C (second compound 0.1 µM, first compound 3.16 µM) of 83.9%, a viability, T/C (second compound 0.1 µM, first compound 10 µM) of 65% and a viability, T/C [11] of 87.2%. The viability, T/C [12] was 93.7%, the viability, T/C (second compound 0.316 µM, first compound 0.316 µM) was 90.7% and the viability, T/C (second compound 0.316 µM, first compound 1 µM) was 86%. The viability, T/C (second compound 0.316 µM, first compound 3.16 µM) was 62.8%, the viability, T/C (second compound 0.316 µM, first compound 10 µM) was 65.8% and the viability, T/C [17] was 77.4%. It also gave a viability, T/C [18] of 84.4%, a viability, T/C (second compound 1 µM, first compound 0.316 µM) of 83.6% and a viability, T/C (second compound 1 µM, first compound 1 µM) of 78.6%. It also gave a viability, T/C (second compound 1 µM, first compound 3.16 µM) of 72.6%, a viability, T/C (second compound 1 µM, first compound 10 µM) of 61.3% and a viability, T/C [23] of 74.5%. The viability, T/C [24] was 73.9%, the viability, T/C (second compound 3.16 µM, first compound 0.316 µM) was 77.6% and the viability, T/C (second compound 3.16 µM, first compound 1 µM) was 66.3%. It also gave a viability, T/C (second compound 3.16 µM, first compound 3.16 µM) of 58.1%, a viability, T/C (second compound 3.16 µM, first compound 10 µM) of 66.5% and a viability, T/C [29] of 74.2%. It also gave a viability, T/C [30] of 77.5%, a viability, T/C (second compound 10 µM, first compound 0.316 µM) of 69% and a viability, T/C (second compound 10 µM, first compound 1 µM) of 69.4%. For the same compound, the viability, T/C (second compound 10 µM, first compound 3.16 µM) was 58.7% and the viability, T/C (second compound 10 µM, first compound 10 µM) was 55.9%.
